Experimental data from patent US6579881B2 (Eisai Co., Ltd., priority 1997, dated 2003).
Like-named read-outs stand apart in the source and are kept apart here.

Tests used:
[1] = molecular target: α1 adrenalin receptor; assay: Binding test on [3H] prazosin (α1 adrenalin receptor); design: species or system rat; settings: [3H] prazosin about 0.2 nM, receptor fraction of rat cerebral cortex
[2] = molecular target: serotonin 2 receptor (Rattus norvegicus, UniProt P14842); assay: Binding test on [3H] ketanserin (serotonin 2 receptor); settings: [3H] ketanserin 0.3 nM, receptor fraction of rat cerebral cortex; read-out: 5HT2
[3] = tested on: Straub's tail reaction (hyper-muscle tone in the tail); assay: Morphine induced Straub's tail phenomenon in mice; type: in vivo; settings: Mus musculus, male ddY mice, 15 min before morphine hydrochloride 12.5 mg/kg s.c., statistically significant (p<0.05)
[4] = molecular target: T1, serotonin 1A receptor (Rattus norvegicus, UniProt P19327); assay: Binding test on [3H] 8-hydroxy-dipropylaminotetralin (serotonin 1A receptor); settings: [3H] 8-OH-DPAT 0.5 nM, receptor fraction of rat hippocampus; read-out: 5HT1a
T1 construct: To the receptor fraction of the hippocampus were added a test compound and 0.5 nM of [^3H]; 8-hydroxy-dipropylaminotetralin; from tissue; host or cells: SD rat hippocampus, membrane (receptor) fraction
T1 sequence (P19327 1-422): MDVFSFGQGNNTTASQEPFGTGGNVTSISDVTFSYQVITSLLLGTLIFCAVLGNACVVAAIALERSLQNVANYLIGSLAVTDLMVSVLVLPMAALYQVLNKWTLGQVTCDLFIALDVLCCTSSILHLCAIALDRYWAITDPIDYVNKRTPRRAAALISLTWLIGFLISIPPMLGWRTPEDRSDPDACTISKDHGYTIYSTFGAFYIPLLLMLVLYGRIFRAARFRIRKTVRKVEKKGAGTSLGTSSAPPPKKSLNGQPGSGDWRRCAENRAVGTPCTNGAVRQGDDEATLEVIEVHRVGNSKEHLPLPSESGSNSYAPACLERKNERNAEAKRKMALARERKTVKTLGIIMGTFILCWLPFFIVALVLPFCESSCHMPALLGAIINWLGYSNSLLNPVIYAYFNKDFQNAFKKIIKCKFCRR

[5] = po, p.o., read-out: minimal effective dose p.o.
[6] = ip, i.p., read-out: minimal effective dose i.p.

Sequence of serotonin 2 receptor (P14842 whole entry): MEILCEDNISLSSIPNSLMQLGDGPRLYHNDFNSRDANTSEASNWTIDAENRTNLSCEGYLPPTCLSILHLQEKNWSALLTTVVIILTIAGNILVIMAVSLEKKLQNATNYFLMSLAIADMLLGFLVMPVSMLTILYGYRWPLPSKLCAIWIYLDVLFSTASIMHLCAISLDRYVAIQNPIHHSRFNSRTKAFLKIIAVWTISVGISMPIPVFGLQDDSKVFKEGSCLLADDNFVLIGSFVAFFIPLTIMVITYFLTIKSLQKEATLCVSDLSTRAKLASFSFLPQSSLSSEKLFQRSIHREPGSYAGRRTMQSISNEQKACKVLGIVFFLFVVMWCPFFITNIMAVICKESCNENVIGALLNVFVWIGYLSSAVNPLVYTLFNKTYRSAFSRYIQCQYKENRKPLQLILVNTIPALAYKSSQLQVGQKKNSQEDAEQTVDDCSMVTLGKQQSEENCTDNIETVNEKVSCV

Ki [1] [nM] | Ki [2] [nM] | Ki [4] [nM] | melting point [°C] | Structure (SMILES) | minimal effective dose [3, 5] [mg/kg] | minimal effective dose [3, 6] [mg/kg]
75.3 | 6.8 | 2.9 |  | Fc1ccc(CCN2CCC(C3CCc4ccccc43)CC2)cc1 (centres unmarked) [Example 248, 1-[1-(4-fluorophenethyl)piperidin-4-yl]indan] | 30 | ≤ 10
26.8 | 1.39 | 0.44 | 127 to 128 | CC(=O)NCc1ccc2ccn(C3CCN(CCc4ccc(F)cc4)CC3)c2c1 [Example 285, 1-[1-(4-fluorophenethyl)piperidin-4-yl]-6-acetamidomethylindole] | 1 | 1
183 | 4.49 | 1.06 |  | O=C1CCC(=O)N1Cc1ccc2c(c1)N(C1CCN(CCc3ccc(F)cc3)CC1)CC2 [Example 204, 1-[1-(4-fluorophenethyl)piperidin-4-yl]-6-(succinimido-1-yl)methylindoline] | 3 | 3
354 | 3.9 | 22.8 |  | COc1ccc2c(c1)CCCC2C1CCN(CCc2ccc(F)cc2)CC1 (centres unmarked) [Example 277, 1-[2-(4-fluorophenyl)ethyl]-4-(6-methoxy-1,2,3,4-tetrahydronaphthalen-1-yl)piperidine] | 30 | < 1
72.6 | 4.06 | 3.84 |  | CC(=O)N1CCC(Cc2ccc3c(c2)N(C2CCN(CCc4ccc(F)cc4)CC2)CC3)CC1 [Example 168, 1-[1-(4-fluorophenethyl)piperidin-4-yl]-6-[(1-acetylpiperidin-4-yl)methyl]indoline] | 10 | 
194 | 17.1 | 0.79 |  | CC(=O)NCCc1ccc2c(c1)N(C1CCN(CCc3ccc(F)cc3)CC1)CC2 [Example 166, 1-[1-(4-fluorophenethyl)piperidin-4-yl]-6-acetamidoethylindoline] | 3 | 3
70.1 | 2.91 | 4.28 |  | CC(c1ccc2c(c1)N(C1CCN(CCc3ccc(F)cc3)CC1)CC2)c1ccccn1 (centres unmarked) [Example 182, 1-[1-(4-fluorophenethyl)piperidin-4-yl]-6-[1-(2-pyridyl)ethyl]indoline] | 10 | 
442 | 2.02 | 7.72 |  | COc1ccc(Cc2ccc3c(c2)N(C2CCN(CCc4ccc(F)cc4)CC2)CC3)cn1 [Example 189, 1-[1-(4-fluorophenethyl)piperidin-4-yl]-6-[1-(2-methoxypyridin-5-yl)methyl]indoline] | 10 | 

The remaining lines, values behind:

Structure (SMILES) | Ki [1] [nM] | Ki [2] [nM] | Ki [4] [nM] | melting point [°C] | minimal effective dose [3, 5] [mg/kg] | minimal effective dose [3, 6] [mg/kg]
OCCOc1ccc2c(c1)N(C1CCN(CCc3ccc(F)cc3)CC1)CC2 [Example 121, 1-[1-(4-fluorophenethyl)piperidin-4-yl]-6-hydroxyethoxyindoline] | 58.2 | 22.8 | 0.5 |  | 10 | 
CNCc1ccc2c(c1)N(C1CCN(CCc3ccc(F)cc3)CC1)CC2 [Example 162, 1-[1-(4-fluorophenethyl)piperidin-4-yl]-6-N-methylaminomethylindoline] | 223 | 27.1 | 0.98 |  | > 10 | 1
Fc1ccc(CCN2CCC(N3CCc4ccccc43)CC2)cc1 [Example 9, 1-[1-(4-fluorophenethyl)piperidin-4-yl]indoline] | 76.5 | 11.6 | 3 |  |  | 10
CC(=O)NCc1ccc2c(c1)N(C1CCN(CCc3ccc(F)cc3)CC1)CC2 [Example 133, 1-[1-(4-fluorophenethyl)piperidin-4-yl]-6-acetamidomethylindoline] | 262 | 0.05 | 3.7 |  | ≤ 0.3 | 0.3
CC(=O)NCc1ccc(CCN2CCC(N3CCc4ccccc43)CC2)cc1 [Example 36, 1-[1-(4-acetamidomethylphenethyl)piperidin-4-yl]indoline] | 39 | 14.9 | 4.5 |  | ≤ 3 | 1
CCNC(=O)Cc1ccc2c(c1)N(C1CCN(CCc3ccc(F)cc3)CC1)CC2 [Example 149, 1-[1-(4-fluorophenethyl)piperidin-4-yl]-6-(ethylcarbamoylmethyl)indoline] | 304 | 0.5 | 7.44 |  | ≤ 3 | 1
Fc1ccc(CCN2CCC(N3CCc4ccc(F)cc43)CC2)cc1 [Example 103, 1-[1-(4-fluorophenethyl)piperidin-4-yl]-6-fluoroindoline] | 77.7 | 15.8 | 3.9 |  | > 30 | ≤ 10
OCc1cccc(CCN2CCC(N3CCc4ccccc43)CC2)c1 [Example 22, 1-[1-(3-hydroxymethylphenethyl)piperidin-4-yl]indoline] | 113 | 12.2 | 24 |  | > 10 | 
CC(O)c1ccc2c(c1)N(C1CCN(CCc3ccc(F)cc3)CC1)CC2 (centres unmarked) [Example 137, 1-[1-(4-fluorophenethyl)piperidin-4-yl]-6-(1-hydroxyethyl)indoline] | 126 | 6.68 | 0.65 |  | 1 | 
CC(C)NC(=O)Cc1ccc2c(c1)N(C1CCN(CCc3ccc(F)cc3)CC1)CC2 [Example 151, 1-[1-(4-fluorophenethyl)piperidin-4-yl]-6-(isopropylcarbamoylmethyl)indoline] | 292 | 0.57 | 8.84 |  | 3 | 
NC(=O)c1ccc2c(c1)N(C1CCN(CCc3ccc(F)cc3)CC1)CC2 [Example 125, 1-[1-(4-fluorophenethyl)piperidin-4-yl]-6-carbamoylindoline] | 46.4 | 4.76 | 0.1 |  | 3 | 1
NS(=O)(=O)c1ccc(CCN2CCC(N3CCc4ccccc43)CC2)cc1 [Example 42, 1-[1-(4-sulfamoylphenethyl)piperidin-4-yl]indoline] | 230 | 5.7 | 35.8 |  | 10 | ≤ 10
NC(=O)Cc1ccc2c(c1)N(C1CCN(CCc3ccc(F)cc3)CC1)CC2 [Example 147, 1-[1-(4-fluorophenethyl)piperidin-4-yl]-6-carbamoylmethylindoline] | 157 | 0.77 | 1.31 |  | ≤ 3 | ≤ 0.3
